Here are results for 20 compounds from US20150322001A1, “OMEGA-3 ANALOGUES” (The University of Sydney, priority 2012, published 2015).

One series deals with MDA-MB-231 cells. Description: MTT assay, inhibition of proliferation of MDA-MB-231 cells. The conditions noted are these: MTT reduction, 24 h. The series is classed as cell-based, human. As for the experimental part: The synthesized compounds given in Table 1 were tested for their activity in inhibiting the proliferation of MDA-MB-231 cells.
• 1. Cell culture and cell treatment: Breast cancer MDA-MB-231 cells were maintained in monolayers at 37° C. in DMEM containing penicillin and streptomycin, L-glutamine and 10% fetal bovine serum in an atmosphere of 95% air and 5% CO2. Cells were seeded into multi-well plates at 5×10^4 cells/mL; media was replaced 24 h later with fresh serum-free DMEM containing one of the test compounds in DMSO. DMSO was added to control cells at a final concentration of 0.1%. • 2. MTT assay: MDA-MB-231 cells were seeded in 96 well plates (0.2 mL/well), treated with compounds at 0.01, 0.1, 0.5, 1, 5 and 10 μM for 24 h. MTT (25 μL of 2.5 mg/mL solution) was added to each well for 2 h, after which MTT and media were removed. The blue formazan product formed from MTT by live cells was dissolved in DMSO (100 μL/well) and quantified spectrophotometrically at 540 nm in a multilabel counter. IC50s were calculated using GraphPad Prism (Prism 5.01). • 3. Caspase 3 activity: MDA-MB-231 cells were seeded in 96 well plates (0.2 mL/well), and were treated with compounds at 0.1, 0.5 and 1 μM for 24 h. Caspase 3 activity was quantified using the Caspase-Glo 3/7 assay kit according to manufacturer's protocol (Promega). Briefly, after 24 h treatment, fresh serum-free media was added to wells. Cells were equilibrated at room temperature for 30 min, caspase 3/7 substrate in lysis buffer was added and the luminescence was measured. Relative caspase 3/7 activity was calculated as [(luminescence in treatment−luminescence in control)/luminescence in control×100%]. • 4. Annexin V assay: MDA-MB-231 cells were seeded in 6 well plates (3 mL/well), and were treated with compounds at 0.1, 0.5 and 1 μM for 24 h. The apoptotic cells were quantified by Annexin V staining according to the manufacture's protocol (BD Biosciences). Briefly, after 24 h treatment, the media and harvested cells were collected, followed by PBS washes. Cells were stained with Annexin V and PI in binding buffer for 15 min at room temperature and quantified by flow cytometry (BD Biosciences). The apoptotic cells (%) were calculated as [(Annexin V positive cells in treatment−Annexin V positive cells in control)/Annexin V positive cells in control×100%]. • 5. Matrigel assay: MDA-MB-231 cells were trypsinized and resuspended in serum-free DMEM media (3.5×10^6 cells/mL). The cell suspension was mixed 1:1 with Matrigel solution (Bio Scientific). Aliquots (20 μL containing 3.5×10^4 cells) were placed into 6-well tissue-culture dishes to form well-defined droplets and incubated at 37° C. for 5 min to enable semi-solidification. Migration media was freshly made as DMEM containing 20% fetal bovine serum, epidermal growth factor 10 pg/mL, hydrocortisone 0.4 ng/mL, vascular endothelial growth factor (VEGF, 1 pg/mL), basic fibroblast growth factor (bFGF, 20 pg/mL), insulin-like growth factor-1 (40 pg/mL), ascorbic acid (2 ng/mL) and heparin (45 ng/mL). Compounds were added in migration media (3 mL/well) and plates were then incubated for 24 h. Cells that migrated out of droplets were scored using phase-contrast microscopy and digital image analysis (Olympus). • 6. Real-time RT PCR: Cell droplets from migration assays were collected, and total RNA was extracted using Tri Reagent (Astral Scientific) according to the manufacturer's protocol. RNA samples were treated with DNase (Promega) and gene expression was quantified using an Express Onestep Superscript qRT-PCT kit (Invitrogen) and gene-specific primers: heparanase (forward) […] and (reverse) GCAGCAACTTTGGCATTTC, integrin-α3 (forward) […] and (reverse) […], actin (forward) […] and (reverse) […]. The cycling conditions (Roto-Gene™ 6000; Corbett Research) were as follows: 95° C. (15 min); 40 cycles of denaturation (95° C., 30 s); annealing (60° C., 1 min); elongation (72° C., 1 min). […]

In series [1] the test system is MDA-MB-231 breast cancer cell xenografts. The experiment in a line: In vivo evaluation of compound 15, MDA-MB-231 xenografts in nude mice. The conditions noted are these: 10 mg/kg intraperitoneally, 39 days. As for the experimental part: One of the synthesised compounds given in Table 1 (compound 15, reproduced below) was tested for its activity in inhibiting the proliferation of MDA-MB-231 breast cancer cell xenografts in nude mice.
female nu/nu Balb/c mice of 5-6 weeks age at the commencement of the experiment (one week acclimatization after arrival in the animal facility).
two groups of 8 mice each.
MDA-MB-231 cells, 4×10^5 cells/100 μL (Matrigel:phosphate-buffered saline, 1:1) per mouse; subcutaneous injection into the mammary pad.
4 days after cancer cell xenografting compound 15 was administered intraperitoneally at a dose of 10 mg/kg in corn oil (Sigma, containing 2% dimethylsulfoxide). Dosing continued for 6 days per week, for a total of 39 days. Control animals received 2% dimethylsulfoxide in corn oil, 100 μL per 20 g mouse for the same duration.
Body weights were measured daily and tumour sizes every three days (with calipers).

The subject of series [2] is human MDA-MB-231 breast cancer cell xenografts. The experiment in a line: In vivo dose-response study of compound 29, MDA-MB-231 xenografts in nude mice. The conditions noted are these: 38 days. The procedure: One of the synthesised compounds given in Table 1 (compound 29, reproduced below) was the subject of an in vivo dose-response study in nude mice with human MDA-MB-231 breast cancer cell xenografts. One group received compound 15 in parallel.
nu/nu Balb/c; Age: 6 weeks at commencement of study; Gender: female
control, compound 29 (2.5 mg/kg), compound 29 (10 mg/kg), compound 29 (40 mg/kg) and compound 15 (10 mg/kg); 5 mice/group
human MDA-MB-231 cells, 4×10^5 cells/100 μl (Matrigel:PBS 1:1)/mouse, subcutaneous injection into the 4th mammary fat pad.
after 4 days animals received compound 29 at 40, 10 and 2.5 mg/kg doses (in corn oil, Sigma, and 8% DMSO), or compound 15 at 10 mg/kg in corn oil at 4% DMSO, 6 days each week, for 38 days. Control: 8% DMSO in corn oil.
weighed six days a week; tumour sizes measured with calipers every 3 to 4 days.

Turning to “16-{[(4-methoxyphenyl)carbamoyl]amino}hexadecanoic acid [Compound 24]”, the midpoint of inhibition in the series on MDA-MB-231 cells, the IC50, lay at 1300 nM.
For the compound `CCOC(=O)CCCCCCCCCCCCCCCNC(=O)Nc1ccc(C)cc1` [Compound 15, Ethyl 16-{[(4-methylphenyl)carbamoyl]amino}hexadecanoate], the dose limiting toxicity entry in series [1] (6 days per week) is on record as “no dose limiting toxicity”. Besides, in series [1] (6 days per week, FIG. 4), the “mouse body weight loss” value is reported as “greater with compound 15 than control”. Besides, the tumour metastasis result in series [1] is recorded as “appears to suppress tumour metastasis”. For the same compound, in series [1] (FIG. 5), the “primary tumour growth (growth rate and volume)” value is “did not prevent primary tumour growth”. In series [1] (controls 7/8), the “mice with white small foci in the abdominal cavity” value is on record as 1/8. Moreover, the “toxicity of the treatment (growth rates)” value in series [2] (all dose groups) was “non-toxic”. The “mouse body weight gain or loss” value in series [2] (compound 15 10 mg/kg IP, FIG. 8) is reported as “lost weight at the early stage of IP injections”. For the same compound, the IC50 (in general, the concentration at which inhibition is half-maximal) in the series with MDA-MB-231 cells (Homo sapiens) amounted to 20 nM.
Turning to `CC(C)(C)NC(=O)NCCCCCCCCCCCCCCCC(=O)O` [Compound 7, 16-[(tert-butylcarbamoyl)amino]hexadecanoic acid], in the series with MDA-MB-231 cells (Homo sapiens), half-maximal inhibition (IC50) required 1220 ± 80 nM.
Compound `CCOC(=O)CCCCCCCCCCCCCCCNC(=O)Nc1ccccc1` [Compound 9, Ethyl 16-[(phenylcarbamoyl)amino]hexadecanoate] registered an IC50 with MDA-MB-231 cells (Homo sapiens) of 1590 ± 280 nM.
The same measure, in the same setting: to `O=C(O)CCCCCCCCCCCCCCCNC(=O)Nc1ccc(F)cc1` [Compound 12, 16-{[(4-fluorophenyl)carbamoyl]amino}hexadecanoic acid] belongs 1000 nM.
Same read-out and setting: to `CCOC(=O)CCCCCCCCCCCCCCCNC(=O)NC1CCCCC1` [Compound 1] belongs 850 ± 20 nM.
Still for that read-out and setting: to `CCOC(=O)CCCCCCCCCCCCCCCNC(=O)NC12CC3CC(CC(C3)C1)C2` [Compound 17, Ethyl 16-[(tricyclo[3.3.1.1^3,7]dec-1-ylcarbamoyl)amino]hexadecanoate] belongs 2750 ± 270 nM; to `O=C(O)CCCCCCCCCCCCCCCNC(=O)Nc1ccccc1` [Compound 6, 16-[(phenylcarbamoyl)amino]hexadecanoic acid], 1200 nM; to `O=C(O)CCCCCCCCCCCCCCCNC(=O)Nc1ccc(I)cc1` [Compound 26, 16-{[(4-iodophenyl)carbamoyl]amino}hexadecanoic acid], 1000 nM.
Compound `CCOC(=O)CCCCCCCCCCCCCCCNC(=O)Nc1ccc(F)cc1` [Compound 11, Ethyl 16-{[(4-fluorophenyl)carbamoyl]amino}hexadecanoate] displayed an IC50 in the series on MDA-MB-231 cells (Homo sapiens) of 760 ± 70 nM.
The compound `O=C(O)CCCCCCCCCCCCCCCNC(=O)Nc1ccc(Cl)cc1` [Compound 14, 16-{[(4-chlorophenyl)carbamoyl]amino}hexadecanoic acid] came in with an IC50 in the series with MDA-MB-231 cells (Homo sapiens) of 810 nM.
On the same count and under the same terms, to `CCOC(=O)CCCCCCCCCCCCCCCNC(=O)NCCc1ccccc1` [Compound 2, Ethyl 16-{[(2-phenylethyl)carbamoyl]amino}hexadecanoate] belongs 1110 ± 260 nM; to `CCOC(=O)CCCCCCCCCCCCCCCNC(=O)NCc1ccccc1` [Compound 10, Ethyl 16[(benzylcarbamoyl)amino]hexadecanoate], 870 ± 80 nM.
Same read-out and setting: to `O=C(O)CCCCCCCCCCCCCCCNC(=O)NCc1ccccc1` [Compound 8, 16-[(benzylcarbamoyl)amino]hexadecanoic acid] belongs 720 ± 10 nM.
On the same count and under the same terms, to `O=C(O)CCCCCCCCCCCCCCCNC(=O)NCCc1ccccc1` [Compound 3, 16-{[(2-phenylethyl)carbamoyl]amino}hexadecanoic acid] belongs 1500 ± 80 nM; to `O=C(O)CCCCCCCCCCCCCCCNC(=O)NC1CCCCC1` [Compound 5, 16-[(cyclohexylcarbamoyl)amino]hexadecanoic acid], 2780 ± 190 nM; to `CCNC(=O)NCCCCCCCCCCCCCCCC(=O)OCC` [Compound 20, Ethyl 16-[(ethylcarbamoyl)amino]hexadecanoate], 660 ± 30 nM.
Compound `CCOC(=O)CCCCCCCCCCCCCCCNC(=O)NC(C)(C)C` [Compound 4, Ethyl 16-[(tert-butylcarbamoyl)amino]hexadecanoate] came in with an IC50 in the series on MDA-MB-231 cells (Homo sapiens) of 6920 ± 310 nM.
Consider `O=C(O)CCCCCCCCCCCCCCCNC(=O)Nc1ccc(Cl)c(Cl)c1` [Compound 28, 16-{[(3,4-dichlorophenyl)carbamoyl]amino}hexadecanoic acid], for which 1200 nM corresponded to half-maximal inhibition in the series on MDA-MB-231 cells (Homo sapiens) (IC50).
Same read-out and setting: to `CCOC(=O)CCCCCCCCCCCCCCCNC(=O)Nc1ccc(Cl)cc1` [Compound 13, Ethyl 16-{[(4-chlorophenyl)carbamoyl]amino}hexadecanoate] belongs 80 ± 10 nM.
